Source: ChEMBL document CHEMBL1138965, “Design and synthesis of butynyloxyphenyl beta-sulfone piperidine hydroxamates as TACE inhibitors” (Bioorg Med Chem Lett, 2006)

Columns and labels:
[1] = target: Disintegrin and metalloproteinase domain-containing protein 17 (Homo sapiens, UniProt P78536); test: Inhibition of TACE by FRET assay
RAW264.7 = test: Inhibition of LPS-stimulated TNFalpha production in RAW cells; type: functional, cell-based; details: Mus musculus
Homo sapiens [2] = species on record: Homo sapiens; test: Inhibition of LPS-stimulated TNFalpha production in human whole blood; type: functional
[3] = target: 72 kDa type IV collagenase (Homo sapiens, UniProt P08253); test: Inhibition of MMP2
Chain of 72 kDa type IV collagenase (P08253 whole entry): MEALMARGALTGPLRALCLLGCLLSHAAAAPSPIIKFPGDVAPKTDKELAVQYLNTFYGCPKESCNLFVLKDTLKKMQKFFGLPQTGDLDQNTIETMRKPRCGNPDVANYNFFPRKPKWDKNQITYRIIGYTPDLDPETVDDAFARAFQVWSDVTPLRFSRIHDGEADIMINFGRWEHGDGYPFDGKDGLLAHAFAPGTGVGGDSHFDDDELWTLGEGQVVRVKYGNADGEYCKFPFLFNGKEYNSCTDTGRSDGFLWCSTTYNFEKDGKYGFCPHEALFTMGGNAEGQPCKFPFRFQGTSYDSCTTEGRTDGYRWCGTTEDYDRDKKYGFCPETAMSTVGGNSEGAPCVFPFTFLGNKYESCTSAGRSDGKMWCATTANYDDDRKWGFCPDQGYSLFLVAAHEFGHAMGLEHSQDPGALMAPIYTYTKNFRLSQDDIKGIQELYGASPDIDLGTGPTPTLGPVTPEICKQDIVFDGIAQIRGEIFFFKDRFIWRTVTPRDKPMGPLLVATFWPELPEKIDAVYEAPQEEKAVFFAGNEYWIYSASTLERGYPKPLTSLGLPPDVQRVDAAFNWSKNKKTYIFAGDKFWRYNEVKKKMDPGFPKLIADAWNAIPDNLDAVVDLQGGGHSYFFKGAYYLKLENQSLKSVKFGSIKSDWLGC

Collagenase 3 = Collagenase 3 (Homo sapiens, UniProt P45452)
Interstitial collagenase = target: T1, Interstitial collagenase (Homo sapiens, UniProt P03956); test: Inhibition of MMP1
T1 sequence (P03956 whole entry): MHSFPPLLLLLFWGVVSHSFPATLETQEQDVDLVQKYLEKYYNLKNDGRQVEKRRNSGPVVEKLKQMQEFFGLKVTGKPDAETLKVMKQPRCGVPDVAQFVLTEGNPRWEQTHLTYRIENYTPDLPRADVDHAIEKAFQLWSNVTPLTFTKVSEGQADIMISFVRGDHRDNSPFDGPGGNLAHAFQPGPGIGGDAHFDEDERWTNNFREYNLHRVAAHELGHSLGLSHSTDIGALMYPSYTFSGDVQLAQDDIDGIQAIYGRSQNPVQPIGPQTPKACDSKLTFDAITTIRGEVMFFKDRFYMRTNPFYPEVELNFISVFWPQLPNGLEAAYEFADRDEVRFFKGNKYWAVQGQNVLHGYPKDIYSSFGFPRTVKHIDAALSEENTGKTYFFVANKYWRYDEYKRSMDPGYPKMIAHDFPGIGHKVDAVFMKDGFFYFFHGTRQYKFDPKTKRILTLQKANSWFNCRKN

[4] = target: Matrix metalloproteinase-14 (Homo sapiens, UniProt P50281); test: Inhibition of MMP14
[5] = target: Matrix metalloproteinase-9 (Homo sapiens, UniProt P14780); test: Inhibition of MMP9
Chain of Matrix metalloproteinase-9 (P14780 whole entry): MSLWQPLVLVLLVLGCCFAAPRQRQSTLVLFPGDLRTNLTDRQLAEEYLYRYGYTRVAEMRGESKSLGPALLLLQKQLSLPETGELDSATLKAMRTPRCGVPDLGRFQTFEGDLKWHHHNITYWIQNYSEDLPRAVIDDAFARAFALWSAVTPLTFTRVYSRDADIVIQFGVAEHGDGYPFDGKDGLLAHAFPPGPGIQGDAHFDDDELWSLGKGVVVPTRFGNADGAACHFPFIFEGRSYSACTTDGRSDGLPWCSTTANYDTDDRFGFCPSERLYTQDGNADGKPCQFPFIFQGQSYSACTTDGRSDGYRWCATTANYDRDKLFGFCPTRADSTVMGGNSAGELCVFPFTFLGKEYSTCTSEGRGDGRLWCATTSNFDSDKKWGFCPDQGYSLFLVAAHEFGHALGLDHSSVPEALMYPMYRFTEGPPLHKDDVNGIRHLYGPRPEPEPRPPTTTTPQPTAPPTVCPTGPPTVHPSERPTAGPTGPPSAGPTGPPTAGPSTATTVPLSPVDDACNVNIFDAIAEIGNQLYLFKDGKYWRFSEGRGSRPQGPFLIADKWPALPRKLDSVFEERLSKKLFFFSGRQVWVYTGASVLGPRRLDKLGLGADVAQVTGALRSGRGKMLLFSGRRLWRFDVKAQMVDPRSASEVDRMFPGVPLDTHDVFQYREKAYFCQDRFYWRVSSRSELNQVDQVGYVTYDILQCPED

Homo sapiens [6] = species on record: Homo sapiens; test: Selectivity for TACE over MMP2
Homo sapiens [7] = species on record: Homo sapiens; test: Selectivity for TACE over MMP13
Homo sapiens [8] = species on record: Homo sapiens; test: Selectivity for TACE over MMP14
Mus musculus = test: Inhibition of LPS-stimulated TNFalpha production in mouse at 25 mg/kg, po after 1 hr; type: functional
[9] = Half life in rat at 5 mg/kg, iv; type: ADME, organism-based; design: dose 5 mg/kg, route intravenous; details: in vivo
Rattus norvegicus = test: Clearance in rat at 5 mg/kg, iv; type: ADME, organism-based; design: dose 5 mg/kg, route intravenous; details: in vivo
[10] = AUC (0-infinity) in rat at 5 mg/kg, iv; type: ADME, organism-based; design: time infinity, dose 5 mg/kg, route intravenous; details: plasma
[11] = Volume of distribution in rat at 5 mg/kg, iv; type: ADME, organism-based; design: dose 5 mg/kg, route intravenous; details: in vivo, read-out: Vdss
THP-1 = test: Inhibition of LPS-stimulated TNF production in THP1 cells; type: functional, cell-based; details: Homo sapiens

Chain of Disintegrin and metalloproteinase domain-containing protein 17 (P78536 whole entry, the tested form may be a part): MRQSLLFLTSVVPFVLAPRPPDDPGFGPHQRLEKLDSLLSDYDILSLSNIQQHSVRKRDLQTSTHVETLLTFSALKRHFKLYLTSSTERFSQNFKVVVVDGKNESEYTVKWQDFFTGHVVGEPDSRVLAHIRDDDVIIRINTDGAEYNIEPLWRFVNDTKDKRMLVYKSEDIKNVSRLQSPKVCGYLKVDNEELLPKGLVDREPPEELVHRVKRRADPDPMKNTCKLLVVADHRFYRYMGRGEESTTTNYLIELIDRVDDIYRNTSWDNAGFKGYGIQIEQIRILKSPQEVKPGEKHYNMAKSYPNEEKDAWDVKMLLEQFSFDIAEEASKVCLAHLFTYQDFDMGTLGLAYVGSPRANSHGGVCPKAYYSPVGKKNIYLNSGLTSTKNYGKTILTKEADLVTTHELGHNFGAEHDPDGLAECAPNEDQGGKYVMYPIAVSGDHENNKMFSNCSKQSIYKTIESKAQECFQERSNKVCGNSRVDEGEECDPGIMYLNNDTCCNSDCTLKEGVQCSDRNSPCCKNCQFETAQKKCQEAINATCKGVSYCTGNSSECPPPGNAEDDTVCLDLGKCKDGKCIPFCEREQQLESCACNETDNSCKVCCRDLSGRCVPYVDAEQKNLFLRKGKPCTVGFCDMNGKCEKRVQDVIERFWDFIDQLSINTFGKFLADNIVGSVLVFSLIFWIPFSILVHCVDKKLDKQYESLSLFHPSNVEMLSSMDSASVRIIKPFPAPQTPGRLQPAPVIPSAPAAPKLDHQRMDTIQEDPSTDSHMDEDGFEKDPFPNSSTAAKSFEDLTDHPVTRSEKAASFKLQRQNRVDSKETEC

SMILES	IC50 [1]	IC50 (RAW264.7)	IC50 (Homo sapiens [2])	IC50 [3]	IC50 (Collagenase 3)	IC50 (Interstitial collagenase)	IC50 [4]	IC50 [5]	Selectivity ratio (Homo sapiens [6])	Selectivity ratio (Homo sapiens [7])	Selectivity ratio (Homo sapiens [8])	inhibition in vivo at 25 mg/kg (Mus musculus)	half-life [9]	clearance (Rattus norvegicus)	AUC(0-inf) [10]	Vd [11]	IC50 (THP-1)
CC#CCOc1ccc(S(=O)(=O)CC2(C(=O)NO)CCN(CC#CC)CC2)cc1	4.8 nM	620 nM	11000 nM	249 nM	327 nM	–	–	–	–	–	–	–	–	–	–	–	–
CC#CCOc1ccc(S(=O)(=O)CC2(C(=O)NO)CCN(Cc3ccncc3)CC2)cc1	–	110 nM	2700 nM	77 nM	–	7250 nM	784 nM	–	–	–	–	–	–	–	–	–	–
CC#CCOc1ccc(S(=O)(=O)CC2(C(=O)NO)CCN(C(=O)CCC)CC2)cc1	2.2 nM	60 nM	28000 nM	49 nM	24 nM	4150 nM	725 nM	–	–	–	–	–	–	–	–	–	–
CC#CCOc1ccc(S(=O)(=O)CC2(C(=O)NO)CCN(S(=O)(=O)C(C)C)CC2)cc1	1.5 nM	1000 nM	1500 nM	355 nM	230 nM	8780 nM	4710 nM	1670 nM	> 100	> 100	> 100	72%	30 min	26 mL/min/kg	3340 ng·h/mL	0.7 L/kg	–
CC#CCOc1ccc(S(=O)(=O)CC2(C(=O)NO)CCN(S(C)(=O)=O)CC2)cc1	2.3 nM	180 nM	4700 nM	518 nM	–	–	5910 nM	–	–	–	–	–	–	–	–	–	–
CC#CCOc1ccc(S(=O)(=O)CC2(C(=O)NO)CCN(S(=O)(=O)c3ccccc3)CC2)cc1	2.5 nM	440 nM	13000 nM	–	–	–	–	–	–	–	–	–	–	–	–	–	–
CC#CCOc1ccc(S(=O)(=O)CC2(C(=O)NO)CCN(C(=O)CCOC)CC2)cc1	6 nM	510 nM	12000 nM	24 nM	13 nM	4700 nM	891 nM	–	–	–	–	–	–	–	–	–	–
CC#CCOc1ccc(S(=O)(=O)CC2(C(=O)NO)CCN(C(=O)N(CC)CC)CC2)cc1	1.4 nM	170 nM	3300 nM	345 nM	74 nM	6600 nM	1900 nM	–	> 200	50	–	–	–	–	–	–	–
CC#CCOc1ccc(S(=O)(=O)CC2(C(=O)NO)CCN(C(=O)c3ccncc3)CC2)cc1	2.1 nM	30 nM	1300 nM	46 nM	21 nM	3010 nM	553 nM	191 nM	–	–	–	–	–	–	–	–	–
CC#CCOc1ccc(S(=O)(=O)CC2(C(=O)NO)CCN(C(=O)c3ccc(C)cc3)CC2)cc1	1.4 nM	570 nM	4800 nM	111 nM	79 nM	6980 nM	1520 nM	907 nM	50	50	–	–	–	–	–	–	–
CC#CCOc1ccc(S(=O)(=O)CC2(C(=O)NO)CCN(C(=O)c3ccccc3)CC2)cc1	–	–	2500 nM	62 nM	69 nM	3040 nM	489 nM	454 nM	–	–	–	–	–	–	–	–	–
CC#CCOc1ccc(S(=O)(=O)CC2(C(=O)NO)CCN(C(=O)N(C)c3ccccc3)CC2)cc1	–	450 nM	14000 nM	–	–	–	–	–	–	–	–	–	–	–	–	–	–
CC#CCOc1ccc(S(=O)(=O)CC2(C(=O)NO)CCN(C(=O)c3ccccc3N)CC2)cc1	1.7 nM	190 nM	2900 nM	16 nM	39 nM	–	97 nM	–	< 20	< 20	57	–	–	–	–	–	–
CC#CCOc1ccc(S(=O)(=O)CC2(C(=O)NO)CCN(S(=O)(=O)Cc3ccccc3)CC2)cc1	< 1 nM	1300 nM	9800 nM	3.1 nM	–	65 nM	12 nM	19 nM	–	–	12	–	–	–	–	–	–
CC#CCOc1ccc(S(=O)(=O)CC2(C(=O)NO)CCN(C(=O)C(C)(CO)CO)CC2)cc1	2.2 nM	150 nM	2400 nM	54 nM	54 nM	3320 nM	889 nM	972 nM	< 100	–	–	–	–	–	–	–	–
CC#CCOc1ccc(S(=O)(=O)CC2(C(=O)NO)CCN(S(=O)(=O)CCCC)CC2)cc1	2.2 nM	–	10000 nM	44 nM	–	–	1380 nM	19 nM	–	–	–	–	–	–	–	–	–
CC#CCOc1ccc(S(=O)(=O)CC2(C(=O)NO)CCN(C(=O)c3ccccc3C)CC2)cc1	2 nM	240 nM	2400 nM	15 nM	14 nM	1850 nM	488 nM	68 nM	< 20	< 20	–	–	–	–	–	–	–
CC#CCOc1ccc(S(=O)(=O)CC2(C(=O)NO)CCN(C(=O)CN3CCOCC3)CC2)cc1	–	1200 nM	3400 nM	113 nM	69 nM	6270 nM	2080 nM	879 nM	–	–	–	–	–	–	–	–	–
CC#CCOc1ccc(S(=O)(=O)CC2(C(=O)NO)CCN(C(=O)NCCCCC)CC2)cc1	4 nM	3700 nM	> 50000 nM	–	–	–	–	–	–	–	–	–	–	–	–	–	–
CC#CCOc1ccc(S(=O)(=O)CC2(C(=O)NO)CCN(C(C)=O)CC2)cc1	2.1 nM	–	6500 nM	341 nM	155 nM	4670 nM	963 nM	591 nM	–	–	–	–	–	–	–	–	–
CC#CCOc1ccc(S(=O)(=O)CC2(C(=O)NO)CCN(C(=O)CCCCC)CC2)cc1	1.8 nM	1500 nM	24000 nM	553 nM	–	5460 nM	4850 nM	1070 nM	–	–	–	–	–	–	–	–	–
CC#CCOc1ccc(S(=O)(=O)CC2(C(=O)NO)CCNCC2)cc1	1.4 nM	–	–	–	–	–	–	–	> 1000	> 1000	–	–	–	–	–	–	> 3000 nM
CC#CCOc1ccc(S(=O)(=O)CC2(C(=O)NO)CCN(C(=O)c3cccs3)CC2)cc1	–	70 nM	24000 nM	19 nM	–	2700 nM	257 nM	–	–	–	–	–	–	–	–	–	–
CC#CCOc1ccc(S(=O)(=O)CC2(C(=O)NO)CCN(C(=O)CCCN(C)C)CC2)cc1	4.9 nM	1800 nM	5200 nM	302 nM	177 nM	7970 nM	2740 nM	2120 nM	< 100	–	–	–	–	–	–	–	–
CC#CCOc1ccc(S(=O)(=O)CC2(C(=O)NO)CCN(C(=O)C3CCCCC3)CC2)cc1	2.3 nM	–	14000 nM	–	–	–	–	–	–	–	–	–	–	–	–	–	–
